Measured values as given in the NIST ThermoML archive (doi:10.1016/j.tca.2005.08.036).

Assay: mn = molality of the nth substance listed, in mol/kg
Settings: Liquid, Capillary tube (Ostwald / Ubbelohde) method

[I-].[Li+] [lithium iodide] + O
viscosity [mPa·s]
Settings	100 kPa	10000 kPa	40000 kPa
293.15 K, m1 = 0.08	1.009	1.005	0.9978
293.15 K, m1 = 0.16	1.015	1.012	1.004
293.15 K, m1 = 0.2832	1.025	1.02	1.014
293.15 K, m1 = 0.6621	1.05	1.047	1.039
293.15 K, m1 = 1.605	1.122	1.118	1.112
293.15 K, m1 = 2.16	1.158	1.154	1.147
293.15 K, m1 = 3.089	1.227	1.224	1.215
298.15 K, m1 = 0.08	0.8961	0.8946	0.892
298.15 K, m1 = 0.16	0.9025	0.9012	0.8979
298.15 K, m1 = 0.2832	0.9114	0.9098	0.907
298.15 K, m1 = 0.6621	0.9363	0.9351	0.9225
298.15 K, m1 = 1.605	1.002	1.001	0.9979
298.15 K, m1 = 2.16	1.04	1.038	1.035
298.15 K, m1 = 3.089	1.108	1.101	1.097
304.75 K, m1 = 0.6621	0.8141	0.8149	0.8164
304.77 K, m1 = 0.08	0.7764	0.777	0.7779
307.45 K, m1 = 3.089	0.9235	0.925	0.9291
308.74 K, m1 = 0.16	0.7215	0.7221	0.7256
310.64 K, m1 = 0.2832	0.7028	0.7047	0.7074
311.74 K, m1 = 1.605	0.7684	0.77	0.7748
312.45 K, m1 = 2.16	0.7939	0.7957	0.8016
322.51 K, m1 = 0.2832	0.5682	0.5704	0.5768
323.45 K, m1 = 1.605	0.6301	0.6327	0.6406
323.74 K, m1 = 0.16	0.5504	0.5527	0.5599
324.02 K, m1 = 2.16	0.6554	0.6584	0.6666
324.23 K, m1 = 0.6621	0.5733	0.5758	0.5829
324.62 K, m1 = 0.08	0.5385	0.5407	0.5475
325.64 K, m1 = 3.089	0.6865	0.6896	0.6986
341.69 K, m1 = 0.08	0.4164	0.4192	0.4252
343.64 K, m1 = 0.6621	0.4337	0.4368	0.4458
344.06 K, m1 = 0.16	0.4065	0.4093	0.4177
344.66 K, m1 = 1.605	0.4673	0.4708	0.4804
345.43 K, m1 = 2.16	0.4884	0.4912	–
